Tests used:
Format in all cases: cell-based, human
[1] = tested on: mitochondria permeability transition pore; assay: Mitochondria membrane potential (TMRM) in Daoy cell, mPTP activity; conditions: H2O2 +, CsA −; untreated = 100
From the text: (§1) For cells with active mitochondria permeability transition pore, adding peroxide (such as H2O2) could increase the activity of mitochondria permeability transition pore, resulting in a decrease in mitochondria membrane potential.

[2] = tested on: mitochondria permeability transition pore; assay: Mitochondria membrane potential (TMRM) in Daoy cell transfected with empty virus vector; conditions: H2O2 +, CsA −; untreated = 100
From the text: as §1

[3] = tested on: mitochondria permeability transition pore; assay: Mitochondria membrane potential (TMRM) in Daoy cell transfected with virus vector carrying PPIF shRNA; conditions: H2O2 +, CsA −; untreated = 100
From the text: as §1

mPTP-active Daoy cell = assay: Inhibitory effect on mPTP-active Daoy cell (Promega CellTiter-Glo, intracellular ATP); conditions: Daoy cell transfected with empty virus vector without PPIF shRNA
mPTP-inactive Daoy cell = assay: Inhibitory effect on mPTP-inactive Daoy cell (PPIF shRNA; Promega CellTiter-Glo, intracellular ATP); conditions: Daoy cell transfected with virus vector carrying PPIF shRNA
From the text: The activity of mitochondria permeability transition pore (mPTP) was regulated by the PPIF protein. […] PPIF protein activity was restricted by the expression level of PPIF protein in cell.

OO [Compound H2O2, H2O2]
Relative TMRM signal intensity (%) in Daoy cell, mean value [1]: 82%
Relative TMRM signal intensity (%) in the Daoy cell transfected with empty virus vector, mean value [2]: 79%
Relative TMRM signal intensity (%) in the Daoy cell transfected with virus vector carrying PPIF shRNA, mean value [3]: 95%

COc1ccc2c(c1OC)C(C(Cl)(Cl)Cl)N1CCc3cc4c(cc3C1=C2CCCCc1ccccc1)OCO4 (centres unmarked) [AB35469]
IC50 (mPTP-active Daoy cell; Homo sapiens, Daoy): 2.41 µM
IC50 (mPTP-inactive Daoy cell; Homo sapiens, Daoy): 1.11 µM

CCCCC1c2c(c(Br)cc(OC)c2OC)C=C2c3cc4c(cc3CCN21)OCO4 (centres unmarked) [AB31873]
IC50 (mPTP-active Daoy cell; Homo sapiens, Daoy): 6.44 µM
IC50 (mPTP-inactive Daoy cell; Homo sapiens, Daoy): 3.13 µM

COc1ccc2c(c1OC)C(c1ccncc1)N1CCc3cc4c(cc3C1=C2)OCO4 (centres unmarked) [AB36488]
IC50 (mPTP-active Daoy cell; Homo sapiens, Daoy): 27 µM
IC50 (mPTP-inactive Daoy cell; Homo sapiens, Daoy): 26.9 µM

COc1ccc2c(c1OCCCBr)CN1CCc3cc4c(cc3C1C2)OCO4 (centres unmarked) [AB31878]
IC50 (mPTP-active Daoy cell; Homo sapiens, Daoy): 10.4 µM
IC50 (mPTP-inactive Daoy cell; Homo sapiens, Daoy): 11 µM

[2H]C([2H])([2H])Oc1c(OC)ccc2c1C([2H])(C1CCCC1)N1CCc3cc4c(cc3C1=C2)OCO4 (centres unmarked) [AB36509]
IC50 (mPTP-active Daoy cell; Homo sapiens, Daoy): 2.12 µM
IC50 (mPTP-inactive Daoy cell; Homo sapiens, Daoy): 0.45 µM

COc1c(OCCCCl)ccc2c1C(C1CCCC1)N1CCc3cc4c(cc3C1=C2)OCO4 (centres unmarked) [AB36474]
IC50 (mPTP-active Daoy cell; Homo sapiens, Daoy): 4.26 µM
IC50 (mPTP-inactive Daoy cell; Homo sapiens, Daoy): 1.39 µM

COc1ccc2c(c1OC/C=C(\C)CCC=C(C)C)C(C1CCCC1)N1CCc3cc4c(cc3C1=C2)OCO4 (centres unmarked) [AB35438]
IC50 (mPTP-active Daoy cell; Homo sapiens, Daoy): 1.86 µM
IC50 (mPTP-inactive Daoy cell; Homo sapiens, Daoy): 0.84 µM

COc1ccc2c(c1OCCCCCCNC(=O)OC(C)(C)C)C(C(Cl)(Cl)Cl)N1CCc3cc4c(cc3C1=C2)OCO4 (centres unmarked) [AB35407]
IC50 (mPTP-active Daoy cell; Homo sapiens, Daoy): 2.83 µM
IC50 (mPTP-inactive Daoy cell; Homo sapiens, Daoy): 1.34 µM

COc1ccc2c(c1OC)C(C1CCCC1)N1CCc3cc4c(cc3C1=C2Cc1ccc(C(C)C)cc1)OCO4 (centres unmarked) [AB35460]
IC50 (mPTP-active Daoy cell; Homo sapiens, Daoy): 1.96 µM
IC50 (mPTP-inactive Daoy cell; Homo sapiens, Daoy): 0.78 µM

COc1ccc2c(c1N1CCN(C)CC1)C(C1CCCC1)N1CCc3cc4c(cc3C1=C2)OCO4 (centres unmarked) [AB35519]
IC50 (mPTP-active Daoy cell): 13.6 µM
IC50 (mPTP-inactive Daoy cell): 6.03 µM

COc1ccc2c(c1OCCCCl)C(C(Cl)(Cl)Cl)N1CCc3cc4c(cc3C1=C2)OCO4 (centres unmarked) [AB35441]
IC50 (mPTP-active Daoy cell; Homo sapiens, Daoy): 2.88 µM
IC50 (mPTP-inactive Daoy cell; Homo sapiens, Daoy): 1.27 µM

COc1ccc2c(c1OC)C(=C(Cl)Cl)N1CCc3cc4c(cc3C1=C2)OCO4 [AB36512]
IC50 (mPTP-active Daoy cell; Homo sapiens, Daoy): 6.42 µM
IC50 (mPTP-inactive Daoy cell; Homo sapiens, Daoy): 7.09 µM

CCCCCCOc1c(OC)ccc2c1C(C(Cl)(Cl)Cl)N1CCc3cc4c(cc3C1=C2)OCO4 (centres unmarked) [AB35487]
IC50 (mPTP-active Daoy cell; Homo sapiens, Daoy): 1.77 µM
IC50 (mPTP-inactive Daoy cell; Homo sapiens, Daoy): 0.47 µM

COc1ccc2c(c1OC)C(c1ccccc1)N1CCc3cc4c(cc3C1=C2)OCO4 (centres unmarked) [AB36467]
IC50 (mPTP-active Daoy cell; Homo sapiens, Daoy): 12.1 µM
IC50 (mPTP-inactive Daoy cell; Homo sapiens, Daoy): 4.63 µM

COc1ccc2c(c1OC)C(C(Cl)(Cl)Cl)N1CCc3cc4c(cc3C1=C2CCCCCCCl)OCO4 (centres unmarked) [AB35524]
IC50 (mPTP-active Daoy cell; Homo sapiens, Daoy): 4.04 µM
IC50 (mPTP-inactive Daoy cell; Homo sapiens, Daoy): 1.9 µM

CCOc1c(OC)ccc2c1C(C(Cl)(Cl)Cl)N1CCc3cc4c(cc3C1=C2)OCO4 (centres unmarked) [AB35499]
IC50 (mPTP-active Daoy cell; Homo sapiens, Daoy): 6.45 µM
IC50 (mPTP-inactive Daoy cell; Homo sapiens, Daoy): 3.15 µM

COc1ccc2c(c1OC)C(C(Cl)(Cl)Cl)N1CCc3cc4c(cc3C1=C2CCCc1ccccc1)OCO4 (centres unmarked) [AB35417]
IC50 (mPTP-active Daoy cell; Homo sapiens, Daoy): 3.62 µM
IC50 (mPTP-inactive Daoy cell; Homo sapiens, Daoy): 1.61 µM

COc1ccc2c(c1OCCCBr)CN1CCc3cc4c(cc3C1=C2)OCO4 [AB35544]
IC50 (mPTP-active Daoy cell; Homo sapiens, Daoy): 0.72 µM
IC50 (mPTP-inactive Daoy cell; Homo sapiens, Daoy): 0.2 µM

COc1ccc2c(c1OC)C(C)N1CCc3cc4c(cc3C1=C2)OCCO4 (centres unmarked) [AB31898]
IC50 (mPTP-active Daoy cell; Homo sapiens, Daoy): 9.54 µM
IC50 (mPTP-inactive Daoy cell; Homo sapiens, Daoy): 4.43 µM

COc1ccc2c(c1OC)CN1CCc3cc4c(cc3C1=C2)OCO4 [AB36463]
IC50 (mPTP-active Daoy cell; Homo sapiens, Daoy): 1.95 µM
IC50 (mPTP-inactive Daoy cell; Homo sapiens, Daoy): 0.88 µM

CCCOc1c(OC)ccc2c1CN1CCc3cc4c(cc3C1=C2)OCO4 [AB35536]
IC50 (mPTP-active Daoy cell; Homo sapiens, Daoy): 1.3 µM
IC50 (mPTP-inactive Daoy cell; Homo sapiens, Daoy): 0.4 µM

COc1ccc2c(c1OCCCCCl)C(C(Cl)(Cl)Cl)N1CCc3cc4c(cc3C1=C2)OCO4 (centres unmarked) [AB35496]
IC50 (mPTP-active Daoy cell; Homo sapiens, Daoy): 12.3 µM
IC50 (mPTP-inactive Daoy cell; Homo sapiens, Daoy): 5.28 µM

[2H]C1([2H])c2c(ccc(OC)c2OC)C=C2c3cc4c(cc3CCN21)OCO4 [AB36476]
IC50 (mPTP-active Daoy cell): 2.4 µM
IC50 (mPTP-inactive Daoy cell): 1.1 µM

COc1ccc2c(c1OCCN1CCCCC1)C(C)N1CCc3cc4c(cc3C1=C2)OCO4 (centres unmarked) [AB35443]
IC50 (mPTP-active Daoy cell; Homo sapiens, Daoy): 30 µM
IC50 (mPTP-inactive Daoy cell; Homo sapiens, Daoy): 31 µM

ClC(Cl)(Cl)C1c2c(ccc3c2OCO3)C=C2c3cc4c(cc3CCN21)OCO4 (centres unmarked) [AB35421]
IC50 (mPTP-active Daoy cell; Homo sapiens, Daoy): > 50 µM
IC50 (mPTP-inactive Daoy cell; Homo sapiens, Daoy): 24.9 µM

COc1ccc2c(c1OC)C(C1CCCC1)N1CCc3cc4c(cc3C1=C2CCCCCCBr)OCO4 (centres unmarked) [AB35523]
IC50 (mPTP-active Daoy cell; Homo sapiens, Daoy): 3.22 µM
IC50 (mPTP-inactive Daoy cell; Homo sapiens, Daoy): 1.39 µM

COc1ccc2c(c1OCCCCCCBr)C(C)N1CCc3cc4c(cc3C1=C2)OCO4 (centres unmarked) [AB31897]
IC50 (mPTP-active Daoy cell; Homo sapiens, Daoy): 3.43 µM
IC50 (mPTP-inactive Daoy cell; Homo sapiens, Daoy): 1.58 µM

COc1ccc2c(c1Br)CN1CCc3cc4c(cc3C1=C2)OCO4 [AB36460]
IC50 (mPTP-active Daoy cell; Homo sapiens, Daoy): 2.71 µM
IC50 (mPTP-inactive Daoy cell; Homo sapiens, Daoy): 1.27 µM

Source: US20250197389A1, “NITROGEN-CONTAINING HETEROCYCLIC COMPOUND” (SHANGHAI SHIJIANG BIOTECHNOLOGY CO., LTD, priority 2022, published 2025)
